Laboratory results published in patent US7488583B2, “Fragment complementation assays for G-protein-coupled receptors and their signaling pathways” (Odyssey Thera, Inc., priority 2003, dated 2009).
“Also recorded” adds a separate entry of the source. Non-standard residues stand in square brackets, D forms with d. Residues, ends and D or L forms follow the SMILES beside them. *: point of attachment. Nle = CCCC[C@H](N)C(=O)O; Cbz = O=C(OCc1ccccc1)*

Tests used:
[1] = test system: association of beta-arrestin2 and ubiquitin; experiment: beta-arrestin2/ubiquitin PCA (ubiquitination of beta-arrestin2); format: cell-based; settings: for beta-arrestin2/ubiquitin assay fluorescence, positive pixel mean (PPM) as percent of control (FIG. 12): versus negative control (vehicle alone)
Text: To illustrate another example of a novel assay constructed using the methods provided herein, we developed a protein-fragment complementation assay to measure the association of beta-arrestin2 and ubiquitin (see FIGS. 11-12) using the methods described here. Ubiquitin is a highly conserved 76-amino acid polypeptide. Since its discovery in the mid-1970s, ubiquitin has been associated with cellular house-keeping functions such as eliminating damaged proteins. It has recently become clear that ubiquitin is involved in a variety of other vital processes at different subcellular locations ranging from the plasma membrane to the nucleus, including cell-cycle progression, signal transduction, transcriptional regulation, receptor down-regulation, and endocytosis. Ubiquitin is covalently attached to proteins through an isopeptide bond between its carboxy-terminal glycine and the epsilon-amino group of lysines in the target protein. This attachment is catalyzed by enzymes that activate and ultimately conjugate the ubiquitin moiety to a lysine residue in the substrate. This can be followed by further additions of ubiquitin to specific lysine residues within the linked ubiquitin itself, resulting in a poly-ubiquitin chain. This covalent modification can be reversed by unique proteases specific for the iso-peptide linkage. Although ubiquitin is the best-characterized polypeptide modifier, other polypeptides (often referred to as Ubiquitin-like, or Ubl) are also conjugated to targets in analogous reactions. These ‘alternative’ modifiers, which differ from ubiquitin in sequence similarity but which are structurally similar to ubiquitin, include SUMO; Nedd8; Hub 1, ISG15 or UCRP; and Apg 12 (reviewed in Aguilar).
Previously, assays for ubiquitination have relied upon immunoblotting of proteins with anti-ubiquitin antibodies, or on labelling of proteins with a fluorophore-tagged ubiquitin polypeptide. […] FIGS. 11-12 show the results of the transient transfection of the PCA constructs. […] Since the process of ubiquitination targets proteins for degradation, we used ALLN (see Table 3 for concentration) to inhibit the proteasome activity of the cell in order to ensure that the arrestin/ubiquitin complex would accumulate in the cells and be detectable. […] The effects of Trichostatin A are particularly interesting in light of recent findings linking HDAC inhibition with the attenuation of cardiac hypertrophy induced by isoproterenol or by overexpression of proteins linked to cardiac growth and proliferation (Cardiac hypertrophy and histone deacetylase-dependent transcriptional repression mediated by the atypical homeodomain protein Hop; H. Kook, et al., J Clin Invest. 2003 September; 112(6):863-71). […]

[2] = biological target: T1, interaction of the beta-adrenergic receptor with beta-arrestin2 (Homo sapiens, UniProt P07550); format: cell-based; settings: HEK293T stable line, 480 minutes, concentrations of Table 3
T1 construct: (Gly-Gly-Gly-Gly-Ser)2 linker between receptor and YFP[2]; YFP[2]; (EYFP amino acids 159-239); expressed in transfected cells
Description: For the betaARR2/beta2AR, stable cell lines were generated.
Drug concentrations initially were chosen based on literature references and were further refined to ensure lack of toxicity in HEK293 cells, based on lactate dehydrogenase (LDH) toxicity analyses. All liquid handling steps were performed using the Biomek FX platform (Beckman Instruments, Fullerton, Calif.). Cells expressing the betaARR2/beta2AR PCA were incubated in cell culture medium containing drugs for 30 min., 90 min., and 8 hours. […] Cells were subsequently rinsed with HBSS (Invitrogen) and maintained in the same buffer during image acquisition. […] All treatment conditions were run in duplicate yielding a total of 8 images for each wavelength and treatment condition.
For these high-content assays, image analysis is needed to convert the acquired images into fluorescence intensity and, if desired, to resolve the subcellular distribution of the fluorescence signal. […] Raw images in 16-bit grayscale TIFF format were analyzed using ImageJ API/library as described in the literature. […] Next a threshold was established to separate the foreground from background. An iterative algorithm based on Particle Analyzer from ImageJ was applied to the thresholded Hoechst channel image (HI) to obtain the total cell count. The nuclear region of a cell (nuclear mask) was also derived from the thresholded HI. A WGA mask was generated similarly from the thresholded Texas Red image. […] To calculate the global background (gBG), a histogram was obtained from the un-thresholded YI and the pixel intensity of the lowest intensity peak was identified as gBG. […] The mean pixel intensity for all positive particles within each defined sub-region was calculated, resulting in 4 parameters: total positive pixel mean (MT, the mean intensity of the total particle fluorescence); Hoechst mean (M1, the mean intensity of the Hoechst defined region); Texas Red mean (M2, the mean intensity of the WGA-defined region); and Subtracted mean (M3, the mean intensity of the pixels excluded from the WGA- and Hoechst-defined regions). All means were corrected for the corresponding gBG.
For each set of experiments (assay+drug treatment+treatment time), positive pixel data from eight images were pooled. For each parameter, an outlier filter was applied to filter out those particles falling outside the range (mean±3SD) of the group. Next the sample mean or control mean for each parameter was obtained from each filtered group.

Molecule | beta-arrestin2/ubiquitin assay fluorescence, positive pixel mean (PPM) as percent of control (FIG. 12) [1] | fluorescence intensity of the YFP channel as percent of control, later time points (FIG. 10) [2] | further results
CC(C)NCC(O)c1ccc(O)c(O)c1 (stereo not drawn) [isoproterenol] |  |  | beta-arrestin2/ubiquitin PCA fluorescence intensity after agonist (FIG. 11) ([1]; in the presence of ALLN, 60-120 minutes): caused a significant increase in fluorescence intensity; also recorded: caused a significant increase in signal
CCCC[C@@H](C=O)NC(=O)[C@H](CC(C)C)NC(=O)[C@H](CC(C)C)NC(C)=O [ALLN] (Ac-Leu-Leu-[Nle]-aldehyde) |  |  | beta-arrestin2/ubiquitin PCA signal with proteasome inhibitor (FIG. 11) ([1]; transient transfection, absence of isoproterenol, ALLN at Table 3 concentration): clearly visible in the presence of ALLN; also recorded: Signal was apparent only in the presence
CC(C)C[C@@H](C=O)NC(=O)[C@H](CC(C)C)NC(=O)[C@H](CC(C)C)NC(=O)OCc1ccccc1 [MG132] (Cbz-Leu-Leu-Leu-aldehyde) | significantly increased the assay signal; also recorded: increased the signal fourfold |  | 
Cc1ccc(S(=O)(=O)/C=C/C#N)cc1 [BAY 11-7082] |  | had effects only at later time points | 
pertussis toxin |  | had effects only at later time points | 
CC(/C=C/C(=O)NO)=C\[C@@H](C)C(=O)c1ccc(N(C)C)cc1 [Trichostatin A] | significantly increased the assay signal; also recorded: increased the signal fourfold |  | 
